Test results taken from patent US7732429B2 (Trustees of Tufts College, priority 1994, dated 2010).
In brackets after ≈: the same amount, converted by molar mass.

Tests used:
Format in all cases: cell-based
E. coli ML308 = experiment: susceptibility of tetracycline susceptible strains (MIC), C5 esters; settings: E. coli ML308, susceptible strain, drug alone
S. aureus 450 = experiment: as above; settings: S. aureus 450, susceptible strain, drug alone
E. faecalis ATCC 9790 = experiment: as above; settings: E. faecalis ATCC 9790, susceptible strain, drug alone
E. coli DI-299 (Tet A) = experiment: MIC/MLC chart, analog with and without doxycycline; parameters: key to growth/killing, Analog + Doxy / growth/killing, Doxy Control / growth/killing, Analog Control / growth in MIC/MLC chart: +=growth; 0=no growth (MIC); ↓=killing; ? =99.9% killing (MLC); □=no growth, but no microbiologic testing;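 note: bacterial growth inhibition and killing in broth, each agent tested alone or combined with doxycycline across two-fold serial dilutions, overnight incubation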
S. aureus 4250 (Tet K) = experiment: MIC/MLC chart, analog with and without doxycycline
E. faecalis 158 (Tet L) = experiment: MIC/MLC chart, analog with and without doxycycline
E. faecalis 211 (Tet M) = experiment: MIC/MLC chart, analog with and without doxycycline

## C=C1c2cccc(O)c2C(=O)C2=C(O)C3(O)C(=O)C(C(N)=O)=C(O)C(N(C)C)C3C(OC(=O)CC)C12 (stereo not drawn) [Cmpd 2]
E. coli ML308
  MIC: 10 µg/mL (≈ 20.1 µM)
S. aureus 450
  MIC: 1.3 µg/mL (≈ 2.61 µM)
E. faecalis ATCC 9790
  MIC: .8 µg/mL (≈ 1.6 µM)
E. coli DI-299 (Tet A); analog 1.56 + Doxy 1.55 μg/ml
  growth/killing, Analog + Doxy: +
E. coli DI-299 (Tet A); analog 1.56 + Doxy 3.1 μg/ml
  growth/killing, Analog + Doxy: +
E. coli DI-299 (Tet A); analog 1.56 + Doxy 6.2 μg/ml
  growth/killing, Analog + Doxy: +
E. coli DI-299 (Tet A); analog 1.56 + Doxy 12.3 μg/ml
  growth/killing, Analog + Doxy: +
E. coli DI-299 (Tet A); analog 3.12 + Doxy 1.53 μg/ml
  growth/killing, Analog + Doxy: +
E. coli DI-299 (Tet A); analog 3.12 + Doxy 3.05 μg/ml
  growth/killing, Analog + Doxy: +
E. coli DI-299 (Tet A); analog 3.12 + Doxy 6.1 μg/ml
  growth/killing, Analog + Doxy: +
E. coli DI-299 (Tet A); analog 6.25 + Doxy 3.0 μg/ml
  growth/killing, Analog + Doxy: +
E. coli DI-299 (Tet A); analog 6.25 + Doxy 5.9 μg/ml
  growth/killing, Analog + Doxy: +
E. coli DI-299 (Tet A); analog 12.5 + Doxy 2.8 μg/ml
  growth/killing, Analog + Doxy: +
E. coli DI-299 (Tet A); analog 12.5 + Doxy 5.5 μg/ml
  growth/killing, Analog + Doxy: +
E. coli DI-299 (Tet A); analog .195 + Doxy 1.56 μg/ml
  growth/killing, Analog + Doxy: +
E. coli DI-299 (Tet A); analog .195 + Doxy 3.12 μg/ml
  growth/killing, Analog + Doxy: +
E. coli DI-299 (Tet A); analog .195 + Doxy 6.25 μg/ml
  growth/killing, Analog + Doxy: +
E. coli DI-299 (Tet A); analog .195 + Doxy 12.5 μg/ml
  growth/killing, Analog + Doxy: +
E. coli DI-299 (Tet A); analog .39 + Doxy 1.56 μg/ml
  growth/killing, Analog + Doxy: +
E. coli DI-299 (Tet A); analog .39 + Doxy 3.12 μg/ml
  growth/killing, Analog + Doxy: +
E. coli DI-299 (Tet A); analog .39 + Doxy 6.25 μg/ml
  growth/killing, Analog + Doxy: +
E. coli DI-299 (Tet A); analog .39 + Doxy 12.5 μg/ml
  growth/killing, Analog + Doxy: +
E. coli DI-299 (Tet A); analog .78 + Doxy 1.56 μg/ml
  growth/killing, Analog + Doxy: +
E. coli DI-299 (Tet A); analog .78 + Doxy 3.12 μg/ml
  growth/killing, Analog + Doxy: +
E. coli DI-299 (Tet A); analog .78 + Doxy 6.23 μg/ml
  growth/killing, Analog + Doxy: +
E. coli DI-299 (Tet A); analog .78 + Doxy 12.4 μg/ml
  growth/killing, Analog + Doxy: +
E. coli DI-299 (Tet A); analog alone 1.56 μg/ml
  growth/killing, Analog Control: +
E. coli DI-299 (Tet A); analog alone 3.12 μg/ml
  growth/killing, Analog Control: +
E. coli DI-299 (Tet A); analog alone 6.25 μg/ml
  growth/killing, Analog Control: +
E. coli DI-299 (Tet A); analog alone 12.5 μg/ml
  growth/killing, Analog Control: +
E. coli DI-299 (Tet A); analog alone 25.0 μg/ml
  growth/killing, Analog Control: +
E. coli DI-299 (Tet A); analog alone .195 μg/ml
  growth/killing, Analog Control: +
E. coli DI-299 (Tet A); analog alone .39 μg/ml
  growth/killing, Analog Control: +
E. coli DI-299 (Tet A); analog alone .78 μg/ml
  growth/killing, Analog Control: +
S. aureus 4250 (Tet K); analog .195 + Doxy 1.56 μg/ml
  growth/killing, Analog + Doxy: +
S. aureus 4250 (Tet K); analog .195 + Doxy 3.12 μg/ml
  growth/killing, Analog + Doxy: +
S. aureus 4250 (Tet K); analog .195 + Doxy 6.25 μg/ml
  growth/killing, Analog + Doxy: +
S. aureus 4250 (Tet K); analog .39 + Doxy 1.56 μg/ml
  growth/killing, Analog + Doxy: +
S. aureus 4250 (Tet K); analog .39 + Doxy 3.12 μg/ml
  growth/killing, Analog + Doxy: +
S. aureus 4250 (Tet K); analog .39 + Doxy 6.25 μg/ml
  growth/killing, Analog + Doxy: +
S. aureus 4250 (Tet K); analog .78 + Doxy 1.56 μg/ml
  growth/killing, Analog + Doxy: +
S. aureus 4250 (Tet K); analog .78 + Doxy 3.12 μg/ml
  growth/killing, Analog + Doxy: +
S. aureus 4250 (Tet K); analog alone 1.56 μg/ml
  growth/killing, Analog Control: +
S. aureus 4250 (Tet K); analog alone .195 μg/ml
  growth/killing, Analog Control: +
S. aureus 4250 (Tet K); analog alone .39 μg/ml
  growth/killing, Analog Control: +
S. aureus 4250 (Tet K); analog alone .78 μg/ml
  growth/killing, Analog Control: +
S. aureus 4250 (Tet K); with 1.55 μg/ml doxycycline (Chart 6B)
  MIC of analog in combination: 1.56 μg/ml
S. aureus 4250 (Tet K); with 6.23 μg/ml doxycycline (Chart 6B)
  MIC of analog in combination: 0.78 μg/ml
E. faecalis 158 (Tet L); analog .195 + Doxy 1.56 μg/ml
  growth/killing, Analog + Doxy: +
E. faecalis 158 (Tet L); analog .195 + Doxy 3.12 μg/ml
  growth/killing, Analog + Doxy: +
E. faecalis 158 (Tet L); analog .39 + Doxy 1.56 μg/ml
  growth/killing, Analog + Doxy: +
E. faecalis 158 (Tet L); analog alone .195 μg/ml
  growth/killing, Analog Control: +
E. faecalis 158 (Tet L); analog alone .39 μg/ml
  growth/killing, Analog Control: +
E. faecalis 158 (Tet L); analog alone .78 μg/ml
  growth/killing, Analog Control: +
E. faecalis 211 (Tet M); analog 1.56 + Doxy 1.55 μg/ml
  growth/killing, Analog + Doxy: +
E. faecalis 211 (Tet M); analog 1.56 + Doxy 3.1 μg/ml
  growth/killing, Analog + Doxy: +
E. faecalis 211 (Tet M); analog 1.56 + Doxy 6.2 μg/ml
  growth/killing, Analog + Doxy: +
E. faecalis 211 (Tet M); analog 3.12 + Doxy 1.53 μg/ml
  growth/killing, Analog + Doxy: +
E. faecalis 211 (Tet M); analog 3.12 + Doxy 3.05 μg/ml
  growth/killing, Analog + Doxy: +
E. faecalis 211 (Tet M); analog 3.12 + Doxy 6.1 μg/ml
  growth/killing, Analog + Doxy: +
E. faecalis 211 (Tet M); analog .195 + Doxy 1.56 μg/ml
  growth/killing, Analog + Doxy: +
E. faecalis 211 (Tet M); analog .195 + Doxy 3.12 μg/ml
  growth/killing, Analog + Doxy: +
E. faecalis 211 (Tet M); analog .195 + Doxy 6.25 μg/ml
  growth/killing, Analog + Doxy: +
E. faecalis 211 (Tet M); analog .195 + Doxy 12.5 μg/ml
  growth/killing, Analog + Doxy: +
E. faecalis 211 (Tet M); analog .39 + Doxy 1.56 μg/ml
  growth/killing, Analog + Doxy: +
E. faecalis 211 (Tet M); analog .39 + Doxy 3.12 μg/ml
  growth/killing, Analog + Doxy: +
E. faecalis 211 (Tet M); analog .39 + Doxy 6.25 μg/ml
  growth/killing, Analog + Doxy: +
E. faecalis 211 (Tet M); analog .39 + Doxy 12.5 μg/ml
  growth/killing, Analog + Doxy: +
E. faecalis 211 (Tet M); analog .78 + Doxy 1.56 μg/ml
  growth/killing, Analog + Doxy: +
E. faecalis 211 (Tet M); analog .78 + Doxy 3.12 μg/ml
  growth/killing, Analog + Doxy: +
E. faecalis 211 (Tet M); analog .78 + Doxy 6.23 μg/ml
  growth/killing, Analog + Doxy: +
E. faecalis 211 (Tet M); analog .78 + Doxy 12.4 μg/ml
  growth/killing, Analog + Doxy: +
E. faecalis 211 (Tet M); analog alone 1.56 μg/ml
  growth/killing, Analog Control: +
E. faecalis 211 (Tet M); analog alone 3.12 μg/ml
  growth/killing, Analog Control: +
E. faecalis 211 (Tet M); analog alone 6.25 μg/ml
  growth/killing, Analog Control: +
E. faecalis 211 (Tet M); analog alone .195 μg/ml
  growth/killing, Analog Control: +
E. faecalis 211 (Tet M); analog alone .39 μg/ml
  growth/killing, Analog Control: +
E. faecalis 211 (Tet M); analog alone .78 μg/ml
  growth/killing, Analog Control: +
